Values joined by “and” are separate entries in the source; they are usually repeats but may differ in a detail not shown here. Identical values can stand only once.
Assays:
[1] = type: in vivo, Syrian golden hamster; details: Molnupiravir 200 mpk BID, pre-exposure
[2] = tested on: SARS-CoV-2 B1; type: in vivo, Syrian golden hamster; details: pre-exposure
[3] = In vivo mortality (stray panel in source data sheet Fig. 3d)

SMILES: CC(C)C(=O)OC[C@H]1O[C@@H](n2ccc(NO)nc2=O)[C@H](O)[C@@H]1O [molnupiravir, reference compound]
- % body weight change compared to day 0, Avg ([1]; day 4 vs day 0, group average): 3.04%
- % body weight change compared to day 0 ([1]; day 4 vs day 0, individual animals): 2.6% and 2.4% and 5% and 3% and 2.2%
- Histopathology score, average ([2]; 200 mg/kg/ BID, n=5): 2.10
- Histopathology score, median ([2]; 200 mg/kg/ BID, n=5): 1.50
- Infectious virus in the lung (TCID50/mg), average Log 10 ([2]; 200 mg/kg/ BID, n=5): 4.54 Log 10
- Infectious virus in the lung (TCID50/mg), median Log 10 ([2]; 200 mg/kg/ BID, n=5): 4.21 Log 10
- Viral load (viral RNA) in the lung, average Log 10 ([2]; 200 mg/kg/ BID, n=5): 9.78 Log 10
- Viral load (viral RNA) in the lung, median Log 10 ([2]; 200 mg/kg/ BID, n=5): 9.74 Log 10
- Histopathology score, individual animal ([2]; 200 mg/kg/ BID, 200 mg/kg): 1.5 and 3
- Infectious virus in the lung (TCID50/mg), Log 10, individual animal ([2]; 200 mg/kg/ BID, 200 mg/kg): 4.01 Log 10 and 3.36 Log 10 and 6.13 Log 10 and 4.21 Log 10 and 4.99 Log 10
- Infectious virus in the lung, individual animal ([2]; 200 mg/kg/ BID, 200 mg/kg): 10248.12 TCID50/mg and 2288.60 TCID50/mg and 1353038.68 TCID50/mg and 16040.54 TCID50/mg and 98821.18 TCID50/mg
- Viral load (viral RNA) in the lung, Copy number, individual animal ([2]; 200 mg/kg/ BID, 200 mg/kg): 5.44E+09 and 8.11E+09 and 8.53E+09 and 4.38E+09 and 4.90E+09
- Viral load (viral RNA) in the lung, Log 10, individual animal ([2]; 200 mg/kg/ BID, 200 mg/kg): 9.74 Log 10 and 9.91 Log 10 and 9.93 Log 10 and 9.64 Log 10 and 9.69 Log 10
- decline in antiviral parameters (in words) ([2]; 300 mg per kg BID, reference): not significant

SMILES: COc1cc(N[C@H](C(=O)c2c[nH]c3ccc(OC(F)(F)F)cc23)c2ccc(Cl)cc2OC)cc(S(C)(=O)=O)c1 [JNJ-1802]
- % Survival ([3]; 802R_0.3, BID, d p.i. 0): 100%
- % Survival ([3]; 802R_0.3, BID, d p.i. 1): 100%
- % Survival ([3]; 802R_0.3, BID, d p.i. 2): 100%
- % Survival ([3]; 802R_0.3, BID, d p.i. 3): 100%
- % Survival ([3]; 802R_0.3, BID, d p.i. 4): 100%
- % Survival ([3]; 802R_0.3, BID, d p.i. 5): 100%
- % Survival ([3]; 802R_0.3, BID, d p.i. 6): 100%
- % Survival ([3]; 802R_0.3, BID, d p.i. 7): 100%
- % Survival ([3]; 802R_0.3, BID, d p.i. 8): 100%
- % Survival ([3]; 802R_0.3, BID, d p.i. 9): 100%
- % Survival ([3]; 802R_0.3, BID, d p.i. 10): 100%
- % Survival ([3]; 802R_0.3, BID, d p.i. 11): 100%
- % Survival ([3]; 802R_0.3, BID, d p.i. 12): 100%
- % Survival ([3]; 802R_0.3, BID, d p.i. 13): 100%
- % Survival ([3]; 802R_0.3, BID, d p.i. 14): 100%
- % Survival ([3]; 802R_0.3, BID, d p.i. 15): 100%
- % Survival ([3]; 802R_0.3, BID, d p.i. 16): 100%
- % Survival ([3]; 802R_0.3, BID, d p.i. 17): 90%
- % Survival ([3]; 802R_0.3, BID, d p.i. 18): 90%
- % Survival ([3]; 802R_0.3, BID, d p.i. 19): 90%
- % Survival ([3]; 802R_0.3, BID, d p.i. 20): 90%
- % Survival ([3]; 802R_0.3, BID, d p.i. 21): 90%
- % Survival ([3]; 802R_0.3, BID, d p.i. 22): 90%
- % Survival ([3]; 802R_0.3, BID, d p.i. 23): 90%
- % Survival ([3]; 802R_0.3, BID, d p.i. 24): 90%
- % Survival ([3]; 802R_0.3, BID, d p.i. 25): 90%
- % Survival ([3]; 802R_1, BID, d p.i. 0): 100%
- % Survival ([3]; 802R_1, BID, d p.i. 1): 100%
- % Survival ([3]; 802R_1, BID, d p.i. 2): 100%
- % Survival ([3]; 802R_1, BID, d p.i. 3): 100%
- % Survival ([3]; 802R_1, BID, d p.i. 4): 100%
- % Survival ([3]; 802R_1, BID, d p.i. 5): 100%
- % Survival ([3]; 802R_1, BID, d p.i. 6): 100%
- % Survival ([3]; 802R_1, BID, d p.i. 7): 100%
- % Survival ([3]; 802R_1, BID, d p.i. 8): 100%
- % Survival ([3]; 802R_1, BID, d p.i. 9): 100%
- % Survival ([3]; 802R_1, BID, d p.i. 10): 100%
- % Survival ([3]; 802R_1, BID, d p.i. 11): 100%
- % Survival ([3]; 802R_1, BID, d p.i. 12): 100%
- % Survival ([3]; 802R_1, BID, d p.i. 13): 100%
- % Survival ([3]; 802R_1, BID, d p.i. 14): 100%
- % Survival ([3]; 802R_1, BID, d p.i. 15): 100%
- % Survival ([3]; 802R_1, BID, d p.i. 16): 100%
- % Survival ([3]; 802R_1, BID, d p.i. 17): 100%
- % Survival ([3]; 802R_1, BID, d p.i. 18): 100%
- % Survival ([3]; 802R_1, BID, d p.i. 19): 100%
- % Survival ([3]; 802R_1, BID, d p.i. 20): 100%
- % Survival ([3]; 802R_1, BID, d p.i. 21): 100%
- % Survival ([3]; 802R_1, BID, d p.i. 22): 100%
- % Survival ([3]; 802R_1, BID, d p.i. 23): 100%
- % Survival ([3]; 802R_1, BID, d p.i. 24): 100%
- % Survival ([3]; 802R_1, BID, d p.i. 25): 100%
- % Survival ([3]; 802R_3, BID, d p.i. 0): 100%
- % Survival ([3]; 802R_3, BID, d p.i. 1): 100%
- % Survival ([3]; 802R_3, BID, d p.i. 2): 100%
- % Survival ([3]; 802R_3, BID, d p.i. 3): 100%
- % Survival ([3]; 802R_3, BID, d p.i. 4): 100%
- % Survival ([3]; 802R_3, BID, d p.i. 5): 100%
- % Survival ([3]; 802R_3, BID, d p.i. 6): 100%
- % Survival ([3]; 802R_3, BID, d p.i. 7): 100%
- % Survival ([3]; 802R_3, BID, d p.i. 8): 100%
- % Survival ([3]; 802R_3, BID, d p.i. 9): 100%
- % Survival ([3]; 802R_3, BID, d p.i. 10): 100%
- % Survival ([3]; 802R_3, BID, d p.i. 11): 100%
- % Survival ([3]; 802R_3, BID, d p.i. 12): 100%
- % Survival ([3]; 802R_3, BID, d p.i. 13): 100%
- % Survival ([3]; 802R_3, BID, d p.i. 14): 100%
- % Survival ([3]; 802R_3, BID, d p.i. 15): 100%
- % Survival ([3]; 802R_3, BID, d p.i. 16): 100%
- % Survival ([3]; 802R_3, BID, d p.i. 17): 100%
- % Survival ([3]; 802R_3, BID, d p.i. 18): 100%
- % Survival ([3]; 802R_3, BID, d p.i. 19): 100%
- % Survival ([3]; 802R_3, BID, d p.i. 20): 100%
- % Survival ([3]; 802R_3, BID, d p.i. 21): 100%
- % Survival ([3]; 802R_3, BID, d p.i. 22): 90%
- % Survival ([3]; 802R_3, BID, d p.i. 23): 90%
- % Survival ([3]; 802R_3, BID, d p.i. 24): 80%
- % Survival ([3]; 802R_3, BID, d p.i. 25): 80%
- % Survival ([3]; 802R_10, BID, d p.i. 0): 100%
- % Survival ([3]; 802R_10, BID, d p.i. 1): 100%
- % Survival ([3]; 802R_10, BID, d p.i. 2): 100%
- % Survival ([3]; 802R_10, BID, d p.i. 3): 100%
- % Survival ([3]; 802R_10, BID, d p.i. 4): 100%
- % Survival ([3]; 802R_10, BID, d p.i. 5): 100%
- % Survival ([3]; 802R_10, BID, d p.i. 6): 100%
- % Survival ([3]; 802R_10, BID, d p.i. 7): 100%
- % Survival ([3]; 802R_10, BID, d p.i. 8): 100%
- % Survival ([3]; 802R_10, BID, d p.i. 9): 100%
- % Survival ([3]; 802R_10, BID, d p.i. 10): 100%
- % Survival ([3]; 802R_10, BID, d p.i. 11): 100%
- % Survival ([3]; 802R_10, BID, d p.i. 12): 100%
- % Survival ([3]; 802R_10, BID, d p.i. 13): 100%
- % Survival ([3]; 802R_10, BID, d p.i. 14): 100%
- % Survival ([3]; 802R_10, BID, d p.i. 15): 80%
- % Survival ([3]; 802R_10, BID, d p.i. 16): 80%
- % Survival ([3]; 802R_10, BID, d p.i. 17): 80%
- % Survival ([3]; 802R_10, BID, d p.i. 18): 80%
- % Survival ([3]; 802R_10, BID, d p.i. 19): 80%
- % Survival ([3]; 802R_10, BID, d p.i. 20): 80%
- % Survival ([3]; 802R_10, BID, d p.i. 21): 80%
- % Survival ([3]; 802R_10, BID, d p.i. 22): 80%
- % Survival ([3]; 802R_10, BID, d p.i. 23): 80%
- % Survival ([3]; 802R_10, BID, d p.i. 24): 80%
- % Survival ([3]; 802R_10, BID, d p.i. 25): 80%

SMILES: C[C@@]1(O)[C@H](O)[C@@H](CO)O[C@H]1n1ccc(N)nc1=O [2'CMC, reference compound]
- % Survival ([3]; 2'CMC, d p.i. 0): 100%
- % Survival ([3]; 2'CMC, d p.i. 1): 100%
- % Survival ([3]; 2'CMC, d p.i. 2): 100%
- % Survival ([3]; 2'CMC, d p.i. 3): 100%
- % Survival ([3]; 2'CMC, d p.i. 4): 100%
- % Survival ([3]; 2'CMC, d p.i. 5): 100%
- % Survival ([3]; 2'CMC, d p.i. 6): 100%
- % Survival ([3]; 2'CMC, d p.i. 7): 100%
- % Survival ([3]; 2'CMC, d p.i. 8): 100%
- % Survival ([3]; 2'CMC, d p.i. 9): 100%
- % Survival ([3]; 2'CMC, d p.i. 10): 100%
- % Survival ([3]; 2'CMC, d p.i. 11): 100%
- % Survival ([3]; 2'CMC, d p.i. 12): 100%
- % Survival ([3]; 2'CMC, d p.i. 13): 90%
- % Survival ([3]; 2'CMC, d p.i. 14): 80%
- % Survival ([3]; 2'CMC, d p.i. 15): 80%
- % Survival ([3]; 2'CMC, d p.i. 16): 80%
- % Survival ([3]; 2'CMC, d p.i. 17): 80%
- % Survival ([3]; 2'CMC, d p.i. 18): 60%
- % Survival ([3]; 2'CMC, d p.i. 19): 60%
- % Survival ([3]; 2'CMC, d p.i. 20): 60%
- % Survival ([3]; 2'CMC, d p.i. 21): 60%
- % Survival ([3]; 2'CMC, d p.i. 22): 60%
- % Survival ([3]; 2'CMC, d p.i. 23): 60%
- % Survival ([3]; 2'CMC, d p.i. 24): 50%
- % Survival ([3]; 2'CMC, d p.i. 25): 50%

From article PMC11981937 (Nature, 2025)
